The source of these data is paper PMC11982978, “Cancer hotspot mutations rewire ERK2 specificity by selective exclusion of docking interactions” (The Journal of Biological Chemistry, 2025).

Assay [1] deals with WT ERK2. In words: Y2H D-site library screen, WT ERK2. In kind it is cell-based, rat. Further details: key: ES = slope of ln(Ft/F0) vs number of yeast population doublings. Particulars: mutant ES is the combined average ES from the D319N and E320K screens. An excerpt: (§1) To examine how cancer-associated CD site mutations affect the scope of ERK2 docking interactions, we adopted a Y2H strategy that we previously applied to define the D-site interactome of WT ERK2 ([15]). This system reports on interactions between ERK2 and a fragment of its substrate ELK1 that harbors a docking site essential for binding (Fig. 1C). The system thus evaluates the binding of potential sequences by substituting them for the native ELK1 docking site. We transformed Y2H strains with a bait plasmid expressing the Gal4 DNA-binding domain (DBD) fused to WT or CD mutant forms of rat ERK2 (R133K, D319N or E320K, equivalent respectively to human R135K, D321N and E322K), along with a prey plasmid expressing Gal4 activation domain (AD) fused to the ELK1 fragment harboring various docking site sequences. We then assayed these strains for growth on solid media under non-selective (+His) and selective conditions (−His) to detect interactions (Fig. 1D).
(§2) We previously used the Y2H system to screen WT ERK2 against a pooled library of 11,756 ELK1 variants incorporating potential docking sites from the human proteome ([15]). To identify interacting sequences either gained or lost upon ERK2 CD site mutation, we screened the same library against ERK2^D319N and ERK2^E320K. Yeast expressing ERK2 mutant bait plasmids were transformed with the ELK1 library pool and subjected to competitive growth under selective (−His) and non-selective conditions (+His) in parallel. Cultures were sampled periodically over ∼7 population doublings. The DNA sequence encoding the variable docking site region was PCR amplified and analyzed by next-generation sequencing (Fig. 2A, Dataset S1). The change in sequence abundance over time was fitted to an exponential function to assign an enrichment score (ES) to each docking site, where a higher ES indicates a greater increase in sequence abundance as the population grows. A significant enrichment of docking site sequences was observed only under selective conditions (Figs. 2B, S1). For each mutant, we observed generally good reproducibility across three independently conducted screens albeit with some sequences enriched in only a single replicate (Fig. S2, A and B). Average ES scores for the E320K and D319N mutant screens were better correlated with each other (R = 0.83) than were average ES scores for either mutant compared to WT ERK2 (R = 0.67 for WT versus D319N, R = 0.63 for WT versus E320K) (Fig. S2C).
(§3) To compare sequences selected by CD mutants with those selected by WT ERK2, we defined those sequences with an ES equal to or higher than three standard deviations from the mean (Z > 3) as hits. Using this cutoff, we obtained 121, 127, and 153 hits sequences from the WT, D319N, and E320K screens, respectively (Fig. 2C, Dataset S2).
(§4) Yeast harboring pGBT9-ERK2^E320K or pGBT9-ERK2^D319N were transformed with the pGADGH-ELK1 D-site library plasmid pool. Transformants (10–40 colonies per library component) were suspended in SD-Leu-Trp media, diluted to an OD600 of 0.1, and cultured in a shaking incubator at 30 °C to an OD600 of 1.0. The resulting culture was used to initiate a competitive selection screen. Cell growth, sample collection and data analysis were performed exactly as described previously for WT ERK2 ([15]). The frequency (F) of each D-site sequence at a given time point (t) was calculated by dividing the number of reads by the total read count for all sequences. For each sequence, a plot of ln(Ft/F0) as a function of the number of yeast population doublings was fit to a line, and the enrichment score (ES) for that sequence was defined as the slope of this line. Illumina sequencing reads, calculated ES, and Z scores for each screen are provided in Dataset S1.

Assay [2] has as its system WT ERK2. To be noted: selective conditions (-His); hits Z > 3; average of three screens; cited from earlier work. The text has this:
Supplement mmc2.xlsx, sheet "WT Hits" | column: Z-score

The target of assay [3] is T1, ERK2 WT (Mus musculus, UniProt P63085).
T1 construct: His6; made in house; host or cells: E. coli BL21(DE3), co-expressed with GST-MEK1ΔN3
T1 sequence (P63085 whole entry): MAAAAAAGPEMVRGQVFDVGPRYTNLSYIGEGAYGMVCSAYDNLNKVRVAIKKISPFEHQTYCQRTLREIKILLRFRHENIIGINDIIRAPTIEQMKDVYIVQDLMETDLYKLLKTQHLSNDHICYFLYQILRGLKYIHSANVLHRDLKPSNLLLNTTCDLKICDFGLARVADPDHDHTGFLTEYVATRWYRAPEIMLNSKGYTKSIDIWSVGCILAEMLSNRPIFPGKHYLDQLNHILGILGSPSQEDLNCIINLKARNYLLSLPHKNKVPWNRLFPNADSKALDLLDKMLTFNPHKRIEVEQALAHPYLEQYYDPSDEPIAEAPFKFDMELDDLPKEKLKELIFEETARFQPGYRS
The assay can be described thus: Competitive peptide kinase assay (D-peptide inhibition), ERK2 WT. Particulars: Table 2, 5 μM D-site dependent reporter peptide, 10 nM ERK2, 10 μM ATP, pH 7.4, fluorescence, mean of three independent replicates. In kind it is biochemical.
Experimental: We determined relative binding affinities for D-peptides from their potency as competitive inhibitors of WT or mutant ERK2 activity on a D-site-dependent reporter substrate peptide (Table S1, Fig. 3A, S3).
Competitive peptide kinase assays were performed with a D-site dependent MAPK reporter substrate peptide (AssayQuant Technologies Inc, #AQT0376) as we reported previously ([15]). Briefly, 5 μM of reporter peptide was mixed with various concentrations of D-peptides in reaction buffer (54 mM HEPES [pH 7.4], 1.2 mM DTT, 0.01% Brij-35, 1% glycerol, 0.2 mg/ml BSA, and 10 mM MgCl2). […] Phosphorylation of the reporter peptide was measured by fluorescence (λex 360 nm, λem 485 nm) in 90 s intervals over 21 min in a Spectra M5 plate reader. Rates were calculated from the linear portion of the reaction progress curve, and data were normalized to maximum (samples lacking competitor peptide) and minimum (control reactions lacking kinase) values. Normalized rates were plotted against D-peptide concentration and fitted into a sigmoidal dose-response curve to determine the IC50 values using GraphPad Prism (Version 9.3.0).

Assay [4] has as its system ERK2 D319N. The assay can be described thus: Y2H D-site library screen, ERK2 D319N. In kind it is cell-based, rat. Further details: key to ES, +His / ES, -His: ES = slope of ln(Ft/F0) vs number of yeast population doublings.
Excerpt: as §1, §2, §3, §4

Assay [5] concerns ERK2 E320K. The assay can be described thus: Y2H D-site library screen, ERK2 E320K. It is filed as cell-based, rat. Further details: key to ES, +His / ES, -His: ES = slope of ln(Ft/F0) vs number of yeast population doublings.
Excerpt: as §1, §2, §3, §4

Where [6] appears, read: Average of 3 Replicate Screens, non-selective.
[7] abbreviates: Average of 3 Replicate Screens, selective.
The mark [8] stands for this setting: Average of 3 Replicate Experiments, non-selective.
The mark [9] stands for this setting: Average of 3 Replicate Experiments, selective.

Consider “RLQERRGSNVALML [PTPN7, D-site 14-mer in ELK1 Y2H prey]”, for which the “WT ES - mutant ES” value in assay [1] turned out to be 0.474. Also, the “Z-score (ES) of hit sequences, WT ERK2 Y2H screen” value (“Z-score (ES) of hit sequences” below) in assay [2] is recorded as 9.09.

Broadly, the IC50 is the concentration that inhibits the measured activity by half. In assay [3], `CC(C)C[C@H](NC(=O)[C@H](CCCNC(=N)N)NC(=O)[C@@H]1CCCN1C(=O)[C@H](CC(C)C)NC(=O)CNC(=O)[C@H](CCCNC(=N)N)NC(=O)[C@H](CCCNC(=N)N)NC(=O)[C@H](C)NC(=O)[C@H](CCCNC(=N)N)NC(=O)[C@H](CC(N)=O)NC(=O)[C@H](C)NC(=O)[C@@H](N)Cc1ccc(O)cc1)C(=O)N[C@@H](C)C(=O)N[C@H](C(=O)N[C@@H](CO)C(=O)N[C@@H](CC(=O)O)C(=O)O)C(C)C` [ISG20 peptide I1N] displayed an IC50 of 190 µM.

Regarding “RQIRASKGIVVLEE [KANSL1L, D-site 14-mer in ELK1 Y2H prey]”, the “ES, +His” value is -0.009508 in assay [4] (setting [6]); -0.002763 in assay [4] (Experiment 1, non-selective); -0.0144 in assay [4] (Experiment 2, non-selective); -0.01136 in assay [4] (Experiment 3, non-selective); -0.008476 in assay [5] (setting [8]); 0.001097 in assay [5] (Experiment 1, non-selective). For the same molecule, the “ES, +His” value in assay [5] (Experiment 2, non-selective) is on record as -0.005884; in assay [5] (Experiment 3, non-selective), -0.02064. In addition, the results for the “Z-Score, +His” value in assay [4] (setting [6]) and in assay [5] (setting [8]) were -0.257 and -0.2637, respectively. Further, the “ES, -His” value is listed as -0.1275 in assay [4] (setting [7]); -0.1582 in assay [4] (Experiment 1, selective); -0.1186 in assay [4] (Experiment 2, selective); -0.1057 in assay [4] (Experiment 3, selective); -0.1355 in assay [5] (setting [9]); -0.1358 in assay [5] (Experiment 1, selective). Moreover, the “ES, -His” value in assay [5] (Experiment 2, selective) is recorded as -0.07688; in assay [5] (Experiment 3, selective), -0.1937. For the same molecule, the “Z-Score, -His” value in assay [4] (setting [7]) is on record as -0.06943; in assay [5] (setting [9]) it was -0.3259.

The molecule `CC[C@H](C)[C@H](NC(=O)[C@H](C)NC(=O)[C@@H](N)Cc1ccc(O)cc1)C(=O)N[C@@H](CCCNC(=N)N)C(=O)N[C@@H](C)C(=O)N[C@@H](CCCNC(=N)N)C(=O)N[C@@H](CCCNC(=N)N)C(=O)N[C@@H](CCC(N)=O)C(=O)N[C@@H](CC(C)C)C(=O)N1CCC[C@H]1C(=O)N[C@@H](CCCNC(=N)N)C(=O)N[C@@H](CC(C)C)C(=O)N[C@@H](C)C(=O)N[C@H](C(=O)N[C@@H](CO)C(=O)N[C@@H](CC(=O)O)C(=O)O)C(C)C` [ISG20 peptide G6Q] returned an IC50 in assay [3] of 41 µM.

Molecule `CC[C@H](C)[C@H](NC(=O)[C@H](CCCNC(=N)N)NC(=O)[C@H](C)NC(=O)[C@@H](N)Cc1ccc(O)cc1)C(=O)N[C@@H](C)C(=O)N[C@@H](CCCNC(=N)N)C(=O)N[C@@H](CCCNC(=N)N)C(=O)NCC(=O)N[C@@H](CC(C)C)C(=O)N1CCC[C@H]1C(=O)N[C@@H](CCCNC(=N)N)C(=O)N[C@@H](CC(C)C)C(=O)N[C@@H](C)C(=O)N[C@H](C(=O)N[C@@H](CO)C(=O)N[C@@H](CC(=O)O)C(=O)O)C(C)C` [ISG20 peptide I1R/R2I] had an IC50 in assay [3] of 200 µM.

Take “LQRKGGPTRLTLPS [CMIP, D-site 14-mer in ELK1 Y2H prey]”: the “Z-score (ES) of hit sequences” value in assay [2] is on record as 4.12.

With “EKIKVKSTEVEILE [MUM1, D-site 14-mer in ELK1 Y2H prey]”, in assay [2], the “Z-score (ES) of hit sequences” value was 3.47.

With “KQGGRKPKPLWLSP [KIAA0556, D-site 14-mer in ELK1 Y2H prey]”, in assay [2], the “Z-score (ES) of hit sequences” value is listed as 4.98.

Consider “DTPIRKKEELLFDD [FBF1, D-site 14-mer in ELK1 Y2H prey]”, for which the “Z-score (ES) of hit sequences” value in assay [2] was 3.49.

Regarding “KKFRHRPEPLFIPP [TRERF1, D-site 14-mer in ELK1 Y2H prey]”, the “Z-score (ES) of hit sequences” value in assay [2] is 19.05.

Regarding “KKRKIPKLVLRINA [DENND2A, D-site 14-mer in ELK1 Y2H prey]”, in assay [2], the “Z-score (ES) of hit sequences” value is listed as 11.21.

“GTRQVKNKGVIVKK [MEIKIN, D-site 14-mer in ELK1 Y2H prey]”: the “ES, +His” value in assay [4] (setting [6]) is listed as -0.02174; in assay [4] (Experiment 1, non-selective), -0.02593; in assay [4] (Experiment 2, non-selective), -0.03529; in assay [4] (Experiment 3, non-selective) it was -0.004005; in assay [5] (setting [8]), -0.01644; in assay [5] (Experiment 1, non-selective), 0.02832. For the same molecule, the “ES, +His” value in assay [5] (Experiment 2, non-selective) was -0.03889; in assay [5] (Experiment 3, non-selective), -0.03876. In addition, the “Z-Score, +His” value is recorded as -0.8853 in assay [4] (setting [6]) and -0.6905 in assay [5] (setting [8]). Also, the “ES, -His” value in assay [4] (setting [7]) is on record as -0.1312; in assay [4] (Experiment 1, selective), -0.1282; in assay [4] (Experiment 2, selective), -0.1336; in assay [4] (Experiment 3, selective) it was -0.1318; in assay [5] (setting [9]), -0.1045; in assay [5] (Experiment 1, selective), -0.1559. Besides, the “ES, -His” value in assay [5] (Experiment 2, selective) was -0.03551; in assay [5] (Experiment 3, selective), -0.1222. Besides, the “Z-Score, -His” value in assay [4] (setting [7]) was -0.1438; in assay [5] (setting [9]), 0.2622.

Consider “LRVRKARPQLILSR [NOL9, D-site 14-mer in ELK1 Y2H prey]”, for which the “Z-score (ES) of hit sequences” value in assay [2] is reported as 4.35.
